Experimental data published in ChEMBL document CHEMBL5625161, “Pharmacological activity and mechanism of pyrazines” (Eur J Med Chem, 2023).
≈ marks a conversion by molar mass, not a printed value. Each block holds one compound with its values, some of them ahead of it.

Experiments:
Coagulation factor X = Coagulation factor X (Homo sapiens, UniProt P00742); experiment: Inhibition of human factor Xa
PC-3 = experiment: Antiproliferative activity against human PC-3 cells assessed as reduction in cell viability incubated for 24 hrs by MTT assay; type: functional, cell-based; conditions: PC-3, 24 h
HT-29 = experiment: Antiproliferative activity against human HT-29 cells assessed as reduction in cell viability incubated for 24 hrs by MTT assay; type: functional, cell-based; conditions: HT-29, 24 h
HeLa = experiment: Antiproliferative activity against human HeLa cells assessed as reduction in cell viability incubated for 24 hrs by MTT assay; type: functional, cell-based
[1] = biological target: Amine oxidase [flavin-containing] B (Homo sapiens, UniProt P27338); experiment: Inhibition of human recombinant MAO-B expressed in insect cells incubated for 15 mins by Amplex red and horseradish peroxidase based fluorescence assay; set-up: species or system Insect cell
Sequence of Amine oxidase [flavin-containing] B (P27338 whole entry): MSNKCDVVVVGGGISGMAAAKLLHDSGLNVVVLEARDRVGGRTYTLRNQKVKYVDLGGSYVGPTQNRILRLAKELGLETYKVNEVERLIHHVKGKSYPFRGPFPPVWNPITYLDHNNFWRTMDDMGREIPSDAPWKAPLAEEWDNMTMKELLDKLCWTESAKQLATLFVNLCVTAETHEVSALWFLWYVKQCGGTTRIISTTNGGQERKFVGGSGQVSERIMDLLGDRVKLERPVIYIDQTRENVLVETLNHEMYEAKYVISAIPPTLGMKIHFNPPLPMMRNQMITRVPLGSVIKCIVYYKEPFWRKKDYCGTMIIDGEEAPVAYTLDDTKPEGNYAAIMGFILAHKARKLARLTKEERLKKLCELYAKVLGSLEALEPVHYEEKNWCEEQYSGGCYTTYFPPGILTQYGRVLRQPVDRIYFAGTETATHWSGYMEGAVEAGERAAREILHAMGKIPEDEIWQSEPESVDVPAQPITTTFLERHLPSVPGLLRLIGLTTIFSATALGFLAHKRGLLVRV

MDA-MB-231 = experiment: Antiproliferative activity against human MDA-MB-231 cells assessed as reduction in cell growth incubated for 48 hrs by MTT assay; type: functional, cell-based; conditions: MDA-MB-231, 48 h
MCF7 [2] = experiment: Antiproliferative activity against human MCF7 cells assessed as reduction in cell growth incubated for 48 hrs by MTT assay; type: functional, cell-based; conditions: MCF7, 48 h
HUVEC = experiment: Antiproliferative activity against VEGF-stimulated human HUVEC cells assessed as reduction in cell viability incubated for 72 hrs by Cell Counting Kit-8 assay; type: functional, cell-based
[3] = Antiproliferative activity against mouse L929 cells assessed as inhibition of cell growth incubated for 5 days by MTT assay; type: toxicity, cell-based
4T1 = experiment: Cytotoxicity against mouse 4T1 cells assessed as reduction in cell growth incubated for 48 hrs by MTT assay; type: functional, cell-based; conditions: 4T1, 48 h
Histone deacetylase 1 = Histone deacetylase 1 (Homo sapiens, UniProt Q13547); experiment: Inhibition of human recombinant HDAC1
Sequence of Histone deacetylase 1 (Q13547 whole entry): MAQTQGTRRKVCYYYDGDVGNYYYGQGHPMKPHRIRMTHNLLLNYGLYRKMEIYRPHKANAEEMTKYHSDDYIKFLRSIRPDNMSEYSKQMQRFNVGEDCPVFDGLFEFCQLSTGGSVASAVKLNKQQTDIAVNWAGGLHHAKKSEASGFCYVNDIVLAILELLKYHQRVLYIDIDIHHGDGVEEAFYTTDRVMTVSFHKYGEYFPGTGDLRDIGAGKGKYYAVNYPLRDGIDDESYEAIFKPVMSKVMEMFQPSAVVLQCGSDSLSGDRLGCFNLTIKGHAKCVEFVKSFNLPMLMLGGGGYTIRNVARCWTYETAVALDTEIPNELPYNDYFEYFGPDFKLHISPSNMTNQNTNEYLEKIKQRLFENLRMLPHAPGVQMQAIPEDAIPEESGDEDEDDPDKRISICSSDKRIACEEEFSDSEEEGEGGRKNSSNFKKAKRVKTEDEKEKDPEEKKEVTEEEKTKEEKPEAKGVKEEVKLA

Histone deacetylase 3 = Histone deacetylase 3 (Homo sapiens, UniProt O15379); experiment: Inhibition of human recombinant HDAC3
Sequence of Histone deacetylase 3 (O15379 whole entry): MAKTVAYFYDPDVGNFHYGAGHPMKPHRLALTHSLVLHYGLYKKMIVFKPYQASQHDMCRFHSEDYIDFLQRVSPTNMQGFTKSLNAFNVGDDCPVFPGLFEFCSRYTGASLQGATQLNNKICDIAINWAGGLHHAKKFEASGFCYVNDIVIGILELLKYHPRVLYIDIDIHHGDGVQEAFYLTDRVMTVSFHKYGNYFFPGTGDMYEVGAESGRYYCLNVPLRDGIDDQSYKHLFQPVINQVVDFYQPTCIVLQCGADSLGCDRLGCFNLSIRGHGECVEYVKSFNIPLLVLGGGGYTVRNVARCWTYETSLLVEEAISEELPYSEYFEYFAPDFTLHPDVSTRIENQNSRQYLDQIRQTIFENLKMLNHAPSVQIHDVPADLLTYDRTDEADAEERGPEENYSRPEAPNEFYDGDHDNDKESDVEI

Histone deacetylase 2 = Histone deacetylase 2 (Homo sapiens, UniProt Q92769); experiment: Inhibition of human recombinant HDAC2
Sequence of Histone deacetylase 2 (Q92769 whole entry): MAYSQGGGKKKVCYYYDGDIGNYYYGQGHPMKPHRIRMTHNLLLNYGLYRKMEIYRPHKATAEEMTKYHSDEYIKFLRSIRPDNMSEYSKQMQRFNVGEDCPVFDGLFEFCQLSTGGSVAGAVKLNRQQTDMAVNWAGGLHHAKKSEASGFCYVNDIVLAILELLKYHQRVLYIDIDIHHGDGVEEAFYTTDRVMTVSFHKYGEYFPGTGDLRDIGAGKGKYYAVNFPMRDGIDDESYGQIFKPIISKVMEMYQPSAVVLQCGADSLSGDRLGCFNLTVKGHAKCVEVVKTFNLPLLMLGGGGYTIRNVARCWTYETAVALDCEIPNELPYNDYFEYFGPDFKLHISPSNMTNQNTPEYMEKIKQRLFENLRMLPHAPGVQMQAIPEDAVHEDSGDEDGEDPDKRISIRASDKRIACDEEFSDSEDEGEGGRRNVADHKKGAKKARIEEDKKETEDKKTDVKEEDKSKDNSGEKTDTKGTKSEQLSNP

MCF7 [4] = experiment: Antiproliferative activity against human MCF7 cells assessed as inhibition of cell growth at 10 uM incubated for 48 hrs by SRB assay relative to control; type: functional; set-up: scale not given: the % may be the effect or the level left
Rhizoctonia solani = experiment: Antifungal activity Rhizoctonia solani assessed as fungal growth inhibition measured after 4 to 8 days; type: functional, organism-based
SW626 = experiment: Cytotoxicity against human SW626 cells assessed as reduction in cell growth incubated for 72 hrs by CCK-8 assay; type: functional, cell-based; conditions: SW626, 72 h
HEY = experiment: Cytotoxicity against human HEY cells assessed as reduction in cell growth incubated for 72 hrs by CCK-8 assay; type: functional, cell-based
ES-2 = experiment: Cytotoxicity against human ES2 cells assessed as reduction in cell growth incubated for 72 hrs by CCK-8 assay; type: functional, cell-based; conditions: ES-2, 72 h
OVCAR-5 = experiment: Cytotoxicity against human OVCAR-5 cells assessed as reduction in cell growth incubated for 72 hrs by CCK-8 assay; type: functional, cell-based; conditions: OVCAR-5, 72 h
A549 [5] = experiment: Cytotoxicity against human A549 cells assessed as reduction in cell growth incubated for 72 hrs by CCK-8 assay; type: functional, cell-based; conditions: A549, 72 h
NCI-H1299 = experiment: Cytotoxicity against human NCI-H1299 cells assessed as reduction in cell growth incubated for 72 hrs by CCK-8 assay; type: functional, cell-based; conditions: NCI-H1299, 72 h
NCI-H460 = experiment: Cytotoxicity against human NCI-H460 cells assessed as reduction in cell growth incubated for 72 hrs by CCK-8 assay; type: functional, cell-based; conditions: NCI-H460, 72 h
SK-OV-3 = experiment: Cytotoxicity against human SK-OV-3 cells assessed as reduction in cell growth incubated for 72 hrs by CCK-8 assay; type: functional, cell-based; conditions: SK-OV-3, 72 h
Caco-2 = experiment: Cytotoxicity against human Caco-2 cells assessed as reduction in cell growth incubated for 72 hrs by CCK-8 assay; type: functional, cell-based; conditions: Caco-2, 72 h
HCT-116 = experiment: Antiproliferative activity against human HCT-116 cells assessed reduction in cell growth incubated for 24 hrs by MTT assay; type: functional, cell-based; conditions: HCT-116, 24 h
[6] = biological target: T1, Fibroblast growth factor receptor 1 (Homo sapiens, UniProt P11362); experiment: Inhibition of human recombinant FGFR1 at 10 uM by Enzyme-linked immunosorbent assay relative to control
T1 sequence (P11362 22-822 limits assumed): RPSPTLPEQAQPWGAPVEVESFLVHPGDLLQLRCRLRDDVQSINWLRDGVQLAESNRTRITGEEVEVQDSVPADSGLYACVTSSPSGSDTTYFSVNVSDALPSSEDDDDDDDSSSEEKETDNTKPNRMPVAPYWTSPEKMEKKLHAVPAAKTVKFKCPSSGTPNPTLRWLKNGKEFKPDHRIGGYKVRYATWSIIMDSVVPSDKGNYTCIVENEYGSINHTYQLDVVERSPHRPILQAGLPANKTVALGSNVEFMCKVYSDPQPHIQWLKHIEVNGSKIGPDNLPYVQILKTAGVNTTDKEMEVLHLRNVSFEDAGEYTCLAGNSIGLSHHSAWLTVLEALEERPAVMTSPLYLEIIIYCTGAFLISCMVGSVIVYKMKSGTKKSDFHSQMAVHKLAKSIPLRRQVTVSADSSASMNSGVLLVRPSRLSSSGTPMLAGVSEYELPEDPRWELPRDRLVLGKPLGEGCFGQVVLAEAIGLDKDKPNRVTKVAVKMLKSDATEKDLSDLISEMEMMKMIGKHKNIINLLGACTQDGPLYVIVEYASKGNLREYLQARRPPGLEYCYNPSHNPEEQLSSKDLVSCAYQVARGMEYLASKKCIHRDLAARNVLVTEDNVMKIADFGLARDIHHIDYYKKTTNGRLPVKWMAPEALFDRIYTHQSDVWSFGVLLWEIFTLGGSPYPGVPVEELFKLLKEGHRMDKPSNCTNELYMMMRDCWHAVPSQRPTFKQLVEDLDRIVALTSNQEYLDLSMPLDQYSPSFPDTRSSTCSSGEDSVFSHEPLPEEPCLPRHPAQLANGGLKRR

[7] = biological target: T1, Fibroblast growth factor receptor 1; experiment: Inhibition of human recombinant FGFR1 at 1 uM by Enzyme-linked immunosorbent assay relative to control
[8] = Cytotoxicity against African green monkey Vero cells incubated for 48 hrs by SRB colorimetric assay; type: toxicity, cell-based, Chlorocebus sabaeus
MCF7 [9] = experiment: Cytotoxicity against human MCF7 cells assessed as reduction in cell growth incubated for 24 hrs by MTT assay; type: functional, cell-based; conditions: MCF7, 24 h
A549 [10] = experiment: Antiproliferative activity against human A549 cells assessed as reduction in cell viability incubated for 48 hrs by SRB assay; type: functional, cell-based; conditions: A549, 48 h
H322 = experiment: Antiproliferative activity against human H322 cells assessed as reduction in cell viability incubated for 48 hrs by SRB assay; type: functional, cell-based; conditions: NCI-H322, 48 h
[11] = biological target: Telomerase reverse transcriptase (Homo sapiens, UniProt O14746); experiment: Inhibition of telomerase (unknown origin)
Sequence of Telomerase reverse transcriptase (O14746 whole entry): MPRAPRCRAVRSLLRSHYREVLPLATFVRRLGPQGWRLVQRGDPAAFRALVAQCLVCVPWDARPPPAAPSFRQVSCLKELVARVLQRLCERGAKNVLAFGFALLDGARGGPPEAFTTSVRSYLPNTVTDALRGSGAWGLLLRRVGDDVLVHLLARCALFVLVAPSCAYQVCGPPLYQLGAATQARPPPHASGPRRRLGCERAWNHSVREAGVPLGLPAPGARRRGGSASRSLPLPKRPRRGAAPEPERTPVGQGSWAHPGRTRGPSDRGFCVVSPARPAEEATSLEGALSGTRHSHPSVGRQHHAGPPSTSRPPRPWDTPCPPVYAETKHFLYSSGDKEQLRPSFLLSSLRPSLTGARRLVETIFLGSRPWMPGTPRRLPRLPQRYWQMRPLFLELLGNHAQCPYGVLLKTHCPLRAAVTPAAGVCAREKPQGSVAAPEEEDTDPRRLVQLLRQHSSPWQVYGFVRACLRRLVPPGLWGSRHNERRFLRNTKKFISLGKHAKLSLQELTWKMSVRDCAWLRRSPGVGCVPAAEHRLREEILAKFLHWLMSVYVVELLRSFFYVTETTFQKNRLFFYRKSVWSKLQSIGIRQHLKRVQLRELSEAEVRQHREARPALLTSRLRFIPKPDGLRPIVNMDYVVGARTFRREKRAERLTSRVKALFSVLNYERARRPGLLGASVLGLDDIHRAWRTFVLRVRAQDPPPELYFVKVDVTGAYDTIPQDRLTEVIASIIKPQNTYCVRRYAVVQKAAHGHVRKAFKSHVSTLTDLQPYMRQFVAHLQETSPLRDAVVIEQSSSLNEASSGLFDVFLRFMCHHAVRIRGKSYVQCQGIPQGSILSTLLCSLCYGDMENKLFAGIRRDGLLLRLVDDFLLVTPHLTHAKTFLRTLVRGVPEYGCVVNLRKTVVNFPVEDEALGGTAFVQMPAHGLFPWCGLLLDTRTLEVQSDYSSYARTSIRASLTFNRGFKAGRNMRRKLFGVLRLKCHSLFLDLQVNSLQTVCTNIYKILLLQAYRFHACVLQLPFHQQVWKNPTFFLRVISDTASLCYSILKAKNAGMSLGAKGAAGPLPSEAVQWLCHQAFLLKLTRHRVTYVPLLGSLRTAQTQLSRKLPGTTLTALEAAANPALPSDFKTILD

HepG2 = experiment: Cytotoxicity against human HepG2 cells assessed as reduction in cell viability incubated for 72 hrs by MTT assay; type: functional, cell-based; conditions: HepG2, 72 h
Cholinesterase = Cholinesterase (Homo sapiens, UniProt P06276); experiment: Inhibition of BchE (unknown origin)
Sequence of Cholinesterase (P06276 whole entry): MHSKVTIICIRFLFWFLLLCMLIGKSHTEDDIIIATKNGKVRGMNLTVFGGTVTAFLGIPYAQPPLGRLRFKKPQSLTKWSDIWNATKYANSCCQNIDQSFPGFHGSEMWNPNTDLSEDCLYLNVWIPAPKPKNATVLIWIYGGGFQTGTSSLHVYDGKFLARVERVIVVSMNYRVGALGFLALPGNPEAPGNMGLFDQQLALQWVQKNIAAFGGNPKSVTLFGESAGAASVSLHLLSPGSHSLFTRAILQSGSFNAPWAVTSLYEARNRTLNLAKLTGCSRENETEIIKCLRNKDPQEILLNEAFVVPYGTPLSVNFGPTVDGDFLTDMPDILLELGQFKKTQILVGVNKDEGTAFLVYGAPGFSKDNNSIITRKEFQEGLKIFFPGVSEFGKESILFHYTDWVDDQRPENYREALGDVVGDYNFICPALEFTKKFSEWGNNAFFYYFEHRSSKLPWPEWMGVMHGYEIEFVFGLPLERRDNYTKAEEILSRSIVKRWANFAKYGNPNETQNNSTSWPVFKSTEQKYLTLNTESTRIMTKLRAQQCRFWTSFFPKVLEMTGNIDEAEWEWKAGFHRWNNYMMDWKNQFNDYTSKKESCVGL

Acetylcholinesterase = Acetylcholinesterase (Homo sapiens, UniProt P22303); experiment: Inhibition of AChE (unknown origin)

Sequence of Coagulation factor X (P00742 41-179 limits assumed): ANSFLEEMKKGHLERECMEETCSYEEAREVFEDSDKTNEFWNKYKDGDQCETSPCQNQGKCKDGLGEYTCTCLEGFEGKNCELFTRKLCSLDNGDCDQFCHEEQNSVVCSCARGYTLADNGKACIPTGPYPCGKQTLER
Sequence of Coagulation factor X (P00742 235-488 limits assumed): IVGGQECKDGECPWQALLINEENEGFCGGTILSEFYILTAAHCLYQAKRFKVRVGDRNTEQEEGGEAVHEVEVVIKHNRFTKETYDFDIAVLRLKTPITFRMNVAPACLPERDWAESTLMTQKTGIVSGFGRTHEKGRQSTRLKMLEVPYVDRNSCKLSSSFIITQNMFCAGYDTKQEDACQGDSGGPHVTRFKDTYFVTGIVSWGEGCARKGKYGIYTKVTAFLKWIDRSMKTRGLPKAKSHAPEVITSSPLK

IC50 (Coagulation factor X): 0.61 nM
SMILES: O=C1CN(S(=O)(=O)c2ccc3cc(Cl)ccc3c2)CC2(CO)NC3(CCN(c4ccncc4)CC3)CN12 (stereo not drawn)

IC50 (PC-3): 80 nM | IC50 (HT-29): 20 nM | IC50 (HeLa): 80 nM
SMILES: CN(CCCN(C)CCN1C(=O)c2cccc3c2c(cc2nccnc23)C1=O)CCN1C(=O)c2cccc3c2c(cc2nccnc23)C1=O

IC50 [1]: 780 nM
SMILES: O=C(Nc1ccc2c(ccn2Cc2cccc(F)c2)c1)c1cnccn1

IC50 (MDA-MB-231): 840 nM | IC50 (MCF7 [2]): 1110 nM
SMILES: Cc1nc(C)c(C(=O)NCCCCCCCCCCCCNOC(=O)c2ccc3cc[nH]c3c2)nc1C
IC50 (HUVEC): 3820 nM | IC50 at 5 days [3]: 3160 nM | IC50 (4T1): 1160 nM

IC50 (Histone deacetylase 1): 70 nM | IC50 (Histone deacetylase 3): 6100 nM | IC50 (Histone deacetylase 2): 260 nM
SMILES: CN1CCN(c2cnc(C(=O)Nc3cc(-c4cccs4)ccc3[N+](=O)[O-])cn2)CC1

IC50 (PC-3): 530 nM | IC50 (HT-29): 20 nM | IC50 (HeLa): 200 nM
SMILES: O=C1c2cccc3c2c(cc2nccnc23)C(=O)N1CCNCCCNCCN1C(=O)c2cccc3c2c(cc2nccnc23)C1=O

IC50 (Coagulation factor X): 0.58 nM
SMILES: CN1C2(CCN(c3ccncc3)CC2)CN2C(=O)CN(S(=O)(=O)c3ccc4cc(Cl)ccc4c3)CC21CO (stereo not drawn)

SMILES: COc1nccc2c1N1C(=O)c3cc4ccccc4n3C(=O)C1C2 (stereo not drawn)
Activity (MCF7 [4]): 50.9%

SMILES: O=C(OCc1cnccn1)c1ccccc1
EC50 (Rhizoctonia solani): 0.02 µg/mL (≈ 0.0934 µM)

SMILES: CC(C)N1C[C@H]2C[C@@H]1CN2c1ccc(Nc2nc(-c3ccc4cn[nH]c4c3)cn3ccnc23)cc1
IC50 (SW626): 9170 nM | IC50 (HEY): 1010 nM | IC50 (ES-2): 1960 nM | IC50 (OVCAR-5): 1530 nM | IC50 (A549 [5]): 830 nM | IC50 (NCI-H1299): 720 nM | IC50 (NCI-H460): 1480 nM | IC50 (SK-OV-3): 760 nM | IC50 (Caco-2): 7390 nM

SMILES: c1cn2cc(-c3ccc4cn[nH]c4c3)nc(Nc3ccc(N4CCOCC4)cc3)c2n1 [ENTOSPLETINIB]
IC50 (SW626): > 10000 nM | IC50 (HEY): > 10000 nM | IC50 (ES-2): > 10000 nM | IC50 (OVCAR-5): 8300 nM | IC50 (A549 [5]): > 10000 nM | IC50 (NCI-H1299): 6260 nM | IC50 (NCI-H460): > 10000 nM | IC50 (SK-OV-3): > 10000 nM | IC50 (Caco-2): 6860 nM

IC50 (HCT-116): 79 nM
SMILES: C[C@@H]1[C@]2(O[C@H]3C=C4[C@@H]5CC[C@H]6Cc7nc8c(nc7C[C@]6(C)[C@H]5C[C@@H](O)[C@]4(C)[C@]31O)C[C@@H]1CC[C@H]3C4=CC5O[C@@]6(CCC(C)(C)O6)[C@@H](C)[C@@H]5[C@@]4(C)[C@H](O)C[C@@H]3[C@@]1(C)C8)O[C@@](C)(COC(=O)CNC(=O)Cc1cc(=O)oc3cc(N(C)C)ccc13)C[C@H]2O (stereo partly drawn)

inhibition [6]: 93.3% | inhibition [7]: 92.5%
SMILES: Cn1cc(-c2cnc3ccn(S(=O)(=O)c4ccccc4)c3n2)cn1

SMILES: COC(=O)c1sc2nccnc2c1Nc1ccccc1OC
IC50 at 48 h [8]: 21300 nM

SMILES: CN(C)CCNc1ccc2c3c(cccc13)-c1nc(C#N)c(C#N)nc1-2
IC50 (MCF7 [9]): 4600 nM

IC50 (A549 [10]): 24200 nM | IC50 (H322): 34700 nM
SMILES: O=c1c2cc(-c3ccc(Cl)cc3)nn2cc(-c2ccccc2)n1CCN1CCOCC1

IC50 [11]: 1240 nM
SMILES: Brc1ccc(CSc2nnc(-c3cnccn3)s2)cc1
IC50 (HepG2): 780 nM

SMILES: Cc1cccc(-c2cnc3cccnc3n2)c1
IC50 (Cholinesterase): 500 nM | IC50 (Acetylcholinesterase): 890 nM
